Results as given in US6610648B2, “Malodor counteractant compositions” (Givaudan SA, priority 2000, dated 2003).
Where “and” joins values, the source holds several entries; their conditions need not be identical. Equal entries are not always repeated. Structures can show the parent of a compound that is named as a salt.

Columns and labels:
Parameters in all cases: species or system human
[1] = Synthetic axilla malodor on cotton pads, 10-member panel rating of malodor strength; details: for Class A + Malodor (strength of the axilla malodor, panel score): 0.4 g ethanolic solution with 10% (wt) test compound on malodor pad, 10-member panel after 3 hours; for Class A + Malodor (strength of the axilla malodor, panel score) / 50% DHF/50% Class A (strength of the axilla malodor, panel score): scale 5 overpowering to 1 not detectable; for 50% DHF/50% Class A (strength of the axilla malodor, panel score): test solution 5% (wt) DHF and 5% (wt) Class A compound, after 3 hours
Method: 100 μl of synthetic axilla malodor was placed onto cotton pads. 0.4 g of an ethanolic solution containing 10% (wt) of a test compound identified in Table 1 was placed on each axilla malodor treated cotton pad. Each pad was allowed to dry 15 for minutes, and then evaluated using a 10-member panel after 3 hours. The test cotton pads were randomized, and each panelist was asked to check a box that represented the strength of the axilla malodor using the following scale:
In this example, the MO effect of various mixtures of a Class A MOC compound and a Class B MOC compound (i.e., dihexyl fumarate (“DHF”) as disclosed in Kulka, U.S. Pat. No. 3,074,892) were evaluated using the same test and malodor evaluation procedures as set forth in Example 1. Each test sol ion contained 5% (wt) DHF and 5% (wt) of the Class A compound identified in Table 3. The MOC effect was evaluated as in Example 1.
Various mixtures of OMC (a Class A Compound) and a Class B compound (i.e., various cyclohexyl esters as disclosed in Schleppnik '221) as identified in Table 4 below were made according to the procedure set forth in Example 1. The MOC of each mixture was evaluated using the procedure set forth in Example 1.

[2] = MOC of sweat malodor on fabric swatches; details: Table 6
Method: The following fabric treatment solutions were prepared:
1. A solution of ethanol and Cremophor (a hydrogenated ethoxylated castor oil marketed by BASF Corp., Mount Olive, N.J.) containing 10% (wt) of dihexyl fumarate (DHF).
2. A solution of ethanol and Cremophor containing 10% (wt) of OMC.
3. A solution of ethanol and Cremophor containing 5% (wt) of DHF+5% (wt) OMC.
Five (5) fabric swatches were prepared, and labeled A-E. Swatch A was designated as the control swatch with no malodor. 100 μl of sweat malodor was placed in the middle of swatches B-E. Swatch B was designated as the control swatch for the malodor. The swatches were allowed to equilibrate with the malodor for 20 minutes. Onto swatches C-E, the following solutions were sprayed:
The malodor intensity on the cotton swatches was evaluated as follows:
The malodor intensity on swatch B (Malodor Control) was identified as a 5 (overpoweringly strong) on the scale of 1-5 set forth below at every time point, and the rest of swatches were evaluated based on that standard.

[3] = Tobacco smoke malodor on cotton fabric, 20-member panel; details: 0.4 gram of 5% (wt) OMC in ethanol on smoke-treated cotton fabric; average of 20 panelists; three hours; scale 1-5
Method: (§1) The ability of OMC to reduce the malodor intensity of tobacco smoke, onion, and garlic solutions on cotton fabric was determined.
(§2) Cotton cloth pads were evaluated by 20 panelists to determine how well OMC reduced the perceived odor of tobacco smoke, onion, and garlic solutions on cotton fabric.
(§3) The effect of the test solutions on the garlic or onion odors were evaluated by asking a 20-member panel to rate the intensity of the malodor present on the controls and on the treated fabrics using a scale of 1-5 as shown below three hours after the preparation of each sample. The data are average values from the scores by each of the 20 panelists.
Samples were prepared fresh before each evaluation. Clean pieces of fabric were treated with smoke by placing each fabric piece in a smoked filled environment for 10 minutes. Each piece of fabric was sprayed with 0.4 gram of the 5% (wt) OMC in ethanol test solution set forth above in the garlic and onion example. The treated fabric pieces were left to dry for 15 minutes, and then wrapped in foil.
Controls were prepared from a smoke-treated piece of cloth that was not sprayed with a test solution.
The fabric pieces were evaluated in the same way as described above in the onion and garlic example.

[4] = Onion malodor on cotton fabric, 20-member panel; details: 0.4 g of 5% OMC in ethanol on cotton pad with 2.5% (wt) onion solution; average of 20 panelists; three hours; scale 1-5
Method: as §1, §2
(§4) Samples were prepared fresh before each evaluation. A solution of 2.5% (wt) garlic and a solution of 2.5% (wt) onion were both made using 39C alcohol as the solvent. Briefly, 0.4 g of the garlic and onion solutions were each sprayed onto cotton towel pads (100% cotton, 5×5cm). 0.4 g of a test solution containing 5% OMC in ethanol were then sprayed on the onion and garlic-treated cotton pads. The pads were allowed to dry for 15-20 minutes under a fume hood. Each pad was then placed in a blind coded Petri-dish.
(§5) Controls were prepared from cotton pads, which were treated only with the garlic or onion solution (i.e., no OMC test solution).
as §3

[5] = Garlic malodor on cotton fabric, 20-member panel; details: 0.4 g of 5% OMC in ethanol on cotton pad with 2.5% (wt) garlic solution; average of 20 panelists; three hours; scale 1-5
Method: as §1, §2, §4, §5, §3

CCCCCCOC(=O)/C=C/C(=O)OCCCCCC [Dihexyl Fumarate, reference compound]
10% test (Compound B Alone) malodor score ([1]; 10% Class B compound alone, procedure of Example 1, scale 1-5): 2.6 | 5% OMC + 5% Compound B malodor score ([1]; mixture 5% OMC + 5% Class B compound, procedure of Example 1, scale 1-5): 2.3 | MOC effect in words, compound alone [2]: had a MOC effect

CCCCCCCCCCOC(=O)/C=C/c1ccccc1 [GR 85 3428]
Class A + Malodor (strength of the axilla malodor, panel score) [1]: 2.8 | 50% DHF/50% Class A (strength of the axilla malodor, panel score) [1]: 3.3

C/C(=C\c1ccccc1O)C(=O)OCCC(C)CCc1ccccc1 (centres unmarked) [GR 85-1407]
Class A + Malodor (strength of the axilla malodor, panel score) [1]: 3.4 | 50% DHF/50% Class A (strength of the axilla malodor, panel score) [1]: 3.0

CC(C)=CCCC(C)CCOC(=O)/C=C/c1ccccc1O (centres unmarked) [GR 85-2280]
Class A + Malodor (strength of the axilla malodor, panel score) [1]: 2.9 | 50% DHF/50% Class A (strength of the axilla malodor, panel score) [1]: 3.1

CC(C)=CCCC(C)CCOC(=O)/C(C#N)=C/c1ccccc1O (centres unmarked) [GR 85-2661]
Class A + Malodor (strength of the axilla malodor, panel score) [1]: 2.9 | 50% DHF/50% Class A (strength of the axilla malodor, panel score) [1]: 2.4

COc1ccc(OC)c(/C=C/C(=O)OCCC(C)CCC=C(C)C)c1 (centres unmarked) [GR 85-3260]
Class A + Malodor (strength of the axilla malodor, panel score) [1]: 3.5 | 50% DHF/50% Class A (strength of the axilla malodor, panel score) [1]: 2.9

COC(=O)/C(C#N)=C/c1ccccc1 [GR 85-3427]
Class A + Malodor (strength of the axilla malodor, panel score) [1]: 3.0 | 50% DHF/50% Class A (strength of the axilla malodor, panel score) [1]: 3.3

CCCCC(CC)COC(=O)/C=C/c1ccccc1 (centres unmarked) [GR 85-3429]
Class A + Malodor (strength of the axilla malodor, panel score) [1]: 3.3 | 50% DHF/50% Class A (strength of the axilla malodor, panel score) [1]: 2.8

CC(C)=CCCC(C)CCOC(=O)/C=C/c1ccccc1O[Si](C)(C)C (centres unmarked) [GR 85-3565]
Class A + Malodor (strength of the axilla malodor, panel score) [1]: 2.7 | 50% DHF/50% Class A (strength of the axilla malodor, panel score) [1]: 3.1

CCCCC(C)COC(=O)C1=Cc2ccc(OC)cc2CC1 (centres unmarked) [GR 85-6495]
Class A + Malodor (strength of the axilla malodor, panel score) [1]: 2.8 | 50% DHF/50% Class A (strength of the axilla malodor, panel score) [1]: 3.0

CCCCC(C)COC(=O)c1cc2ccccc2oc1=O (centres unmarked) [GR 85-6924]
Class A + Malodor (strength of the axilla malodor, panel score) [1]: 2.9 | 50% DHF/50% Class A (strength of the axilla malodor, panel score) [1]: 2.5

CCCCC(CC)COC(=O)/C=C/c1ccc(OC)cc1 (centres unmarked) [OMC, Octyl methoxy cinnamate]
Class A + Malodor (strength of the axilla malodor, panel score) [1]: 2.6 | 10% OMC (Alone) malodor score ([1]; 10% OMC alone, run beside the Compound B of that line, scale 1-5): 3.1 and 2.6 and 3.0 | MOC effect in words, mixture of Class A and Class B compound versus alone ([1]; axilla malodor test pads, Tables 3 and 4): acts at least additively with the Class B compounds | 50% DHF/50% Class A (strength of the axilla malodor, panel score) [1]: 2.3 | MOC effect in words, compound alone [2]: had a MOC effect | Malodor intensity, Smoke [3]: 1.8 | Malodor intensity, Onion [4]: 2.7 | Malodor intensity, Garlic [5]: 2.6

O=C(/C=C/c1ccccc1)OCCc1ccccc1 [PC, Phenylethylcinnamate]
Class A + Malodor (strength of the axilla malodor, panel score) [1]: 2.2
